Reference: paper PMC11878259 (2025)

Columns and labels:
[1] = test system: Cy5-labeled eBroccoli (RNA, aptamer) GCCCGGAUAGCUCAGUCGGUAGAGCAGCGGAGACGGUCGGGUCCAGAUAGUAGUAUCUGUCGAGUUGAGUGUGGGCUCCGCGGGUCCAGGGUUCAAGUCCCUGUUCGGGCGCCA; assay: fluorescence imaging in RNA-peptide condensates; settings: 100 mM K+, 1 mM Mg2+; 40 mM Tris pH 7.5, room temperature; 5 µM RNA; rU22 or rA22 with [RGRGG]5 or R10
[2] = test system: Cy5-labeled Broccoli (RNA, aptamer) GCCCGGAUAGCUCAGUCGGUAGAGCAGCGGAGACGGUCGGGUCCAGAUAUUCGUAUCUGUCGAGUAGAGUGUGGGCUCCGCGGGUCCAGGGUUCAAGUCCCUGUUCGGGCGCCA; assay: fluorescence imaging in RNA-peptide condensates; settings: 100 mM K+, 1 mM Mg2+; 40 mM Tris pH 7.5, room temperature; 5 µM RNA; rU22 or rA22 with [RGRGG]5 or R10
[3] = test system: U50G, C52A, A66U (eBroccoli) (RNA, aptamer) GCCCGGAUAGCUCAGUCGGUAGAGCAGCGGAGACGGUCGGGUCCAGAUAGUAGUAUCUGUCGAGUUGAGUGUGGGCUCCGCGGGUCCAGGGUUCAAGUCCCUGUUCGGGCGCCA; assay: fluorescence light-up, microplate; settings: 0.5 mM K+, 10 mM Na+, 0.2 mM Mg2+, 0.1 mM Ca2+; 20 mM Tris pH 7.5; 25, 37, 45 °C; 0.5 µM RNA, 10 µM compound

Measured: binding

CC1=N/C(=C\c2cc(F)c(O)c(F)c2)C(=O)N1CC(F)(F)F
yes: all assays above
